Data published in patent US8278309B2, “Synthetic mimetics of host defense and uses thereof” (priority 2008, dated 2012).
Values after ≈ are worked out from the molar mass of the structure shown. Where two headings read alike, the source gives them in different places.

Experiments:
[1] = tested on: Entero. faecalis; experiment: MIC broth microdilution, Gram-positive clinical isolates; assay type: cell-based; details: Enterococcus faecalis
Procedure: (§1) Compound A was evaluated in vitro in accordance with defined CLSI documents specific to the organisms (aerobic, anaerobic or yeast) tested in this study. Ampicillin, ceftazidime, cefuroxime, ciprofloxacin, linezolid, and vancomycin were tested alongside as comparator agents for aerobic bacteria; clindamycin and metronidazole were tested as comparators for anaerobes; fluconazole was tested as a comparator for yeast isolates. Stock solutions of Compound A were prepared in dimethyl sulfoxide (DMSO). Ampicillin, ceftazidime, cefuroxime, ciprofloxacin, linezolid, vancomycin, metronidazole, clindamycin, and fluconazole were prepared each according to its manufacturer's guideline.
(§2) Minimum inhibitory concentrations (MICs) in μg/ml were determined according to CLSI guideline M7-A7 by broth microdilution. All aerobes were tested using Mueller-Hinton broth medium with the exception of Streptococcus spp., which were tested using cation-adjusted Mueller-Hinton broth supplemented with 2-5% lysed horse blood.

[2] = tested on: Entero. faecium (VRE); experiment: as above; assay type: cell-based; details: Enterococcus faecium
Procedure: as §1, §2

[3] = tested on: Staph. aureus (MRSA); experiment: as above; assay type: cell-based; details: Staphylococcus aureus
Procedure: as §1, §2

[4] = tested on: Staph. saprophyticus; experiment: as above; assay type: cell-based; details: Staphylococcus saprophyticus
Procedure: as §1, §2

[5] = tested on: Staph. spidermidis; experiment: as above; assay type: cell-based
Procedure: as §1, §2

[6] = tested on: Staph. spp. (coagulase−); experiment: as above; assay type: cell-based
Procedure: as §1, §2

[7] = tested on: Strept. agalactiae; experiment: as above; assay type: cell-based; details: Streptococcus agalactiae
Procedure: as §1, §2

[8] = tested on: Strept. pneumoniae; experiment: as above; assay type: cell-based; details: Streptococcus pneumoniae
Procedure: as §1, §2

[9] = tested on: Strept. pyogenes; experiment: as above; assay type: cell-based; details: Streptococcus pyogenes
Procedure: as §1, §2

[10] = tested on: Strept. viridians; experiment: as above; assay type: cell-based
Procedure: as §1, §2

[11] = tested on: Citrobacter freundi; experiment: MIC broth microdilution, Gram-negative clinical isolates; assay type: cell-based
Procedure: as §1, §2

[12] = tested on: Citrobacter koseri; experiment: as above; assay type: cell-based
Procedure: as §1, §2

[13] = tested on: Enterobacter cloacae; experiment: as above; assay type: cell-based
Procedure: as §1, §2

[14] = tested on: Escherichia coli; experiment: as above; assay type: cell-based
Procedure: as §1, §2

[15] = tested on: Haemophilus influenzae; experiment: as above; assay type: cell-based
Procedure: as §1, §2

[16] = tested on: Klebsiella oxytoca; experiment: as above; assay type: cell-based
Procedure: as §1, §2

[17] = tested on: Klebsiella pneumoniae; experiment: as above; assay type: cell-based
Procedure: as §1, §2

[18] = tested on: Morganella morganii; experiment: as above; assay type: cell-based
Procedure: as §1, §2

[19] = tested on: Proteus mirabilis; experiment: as above; assay type: cell-based
Procedure: as §1, §2

[20] = tested on: Proteus vulgarisi; experiment: as above; assay type: cell-based
Procedure: as §1, §2

[21] = tested on: Providencia stuartii; experiment: as above; assay type: cell-based
Procedure: as §1, §2

[22] = tested on: Serratia marcescens; experiment: as above; assay type: cell-based
Procedure: as §1, §2

[23] = tested on: Stenotrophomonas maltophilia; experiment: as above; assay type: cell-based
Procedure: as §1, §2

[24] = tested on: S. aureus; experiment: MIC or MIC90 vs S. aureus (selectivity table); assay type: cell-based; details: * marks MIC90
[25] = tested on: Acinetobacter spp.; experiment: MIC broth microdilution, Gram-negative clinical isolates; assay type: cell-based; details: 2-3 isolates/organism
Procedure: as §1, §2

[26] = tested on: Pseudomonas aeruginosa; experiment: as above; assay type: cell-based; details: 2-3 isolates/organism
Procedure: as §1, §2

[27] = tested on: MSSA ATCC 29213; experiment: Serial passage resistance, MSSA; assay type: cell-based, S. aureus; details: serial passage at 0.5×MIC
Procedure: (§3) Frozen bacterial stocks (20 μL) of S. aureus ATCC29213 or methicillin-resistant S. aureus (MRSA ATCC 33591) were inoculated into 3 mL cation-adjusted Mueller-Hinton medium and incubated at 37° C. on a shaker platform (250 rpm) overnight. The suspension was diluted to approximately 5×10^5 cfu/mL and inoculated into a polypropylene (Costar) 96-well round bottom plate (90 μL volumes). Compound stock solutions of Compound A and norfloxacin (Sigma Aldrich, St. Louis, Mo.; Catalogue# N9890) were prepared in DMSO and serial two-fold dilutions of compound were made in 0.01% acetic acid, 0.2% bovine serum albumin directly in the wells of the polypropylene plate at 10 μL/well. Final concentrations of Compound A were 50, 25, 12.5, 6.25, 3.13, 1.56, 0.78, 0.39, 0.19, 0.098, 0.049, and 0.024 μg/mL. Final concentration ranges of norfloxacin were 100, 50, 25, 12.5, 6.25, 3.13, 1.56, 0.78, 0.39, 0.19, 0.098, and 0.049 μg/mL. […] All samples were performed in triplicate. Following a 24 hour incubation at 37° C., cell growth was assessed by observing the presence of “acceptable growth”, defined by CLSI as a ≧2 mm button or definite turbidity. The MIC wells were defined as the lowest concentration where acceptable growth was not observed. For serial passage, 50 μL aliquots were taken from 2 of 3 replicate wells at 0.5×MIC and combined into 900 μL of fresh cation-adjusted Mueller-Hinton medium. The OD600 was measured and the cell suspensions were inoculated into polypropylene 96-well round bottom plates (90 μL volumes) at approximately 5×10^5 cfu/mL. Ten μL of compound stock solutions were added previously to the wells to achieve the concentration ranges for each compound described above. All samples were performed in triplicate. The plates were incubated for 24 hours at 37° C. This process was repeated for a total of 17 passages and MIC values were recorded at each passage.

[28] = tested on: MRSA ATCC 33591; experiment: Serial passage resistance, MRSA; assay type: cell-based, S. aureus; details: serial passage at 0.5×MIC
Procedure: as §3

[29] = Staph. spidermidis, 2-3 isolates/organism, read-out: MIC
[30] = 2-3 isolates/organism, read-out: MIC
[31] = Proteus vulgarisi, 2-3 isolates/organism, read-out: MIC

Structure (SMILES): CN[C@H](CC(C)C)C(=O)N[C@H]1C(=O)N[C@@H](CC(N)=O)C(=O)N[C@H]2C(=O)N[C@H]3C(=O)N[C@H](C(=O)N[C@H](C(=O)O)c4cc(O)cc(O)c4-c4cc3ccc4O)[C@H](O)c3ccc(c(Cl)c3)Oc3cc2cc(c3O[C@@H]2O[C@H](CO)[C@@H](O)[C@H](O)[C@H]2O[C@H]2C[C@](C)(N)[C@H](O)[C@H](C)O2)Oc2ccc(cc2Cl)[C@H]1O [Vancomycin]
- MIC [1]: 1 µg/mL (≈ 0.69 µM)
- MIC ([2]; VRE): > 128 µg/mL
- MIC ([3]; MRSA): 0.5 to 1 µg/mL (≈ 0.345 to 0.69 µM)
- MIC [4]: 1 to 2 µg/mL (≈ 0.69 to 1.38 µM)
- MIC [5]: 2 µg/mL (≈ 1.38 µM)
- MIC [6]: 1 to 2 µg/mL (≈ 0.69 to 1.38 µM)
- MIC [7]: 0.5 µg/mL (≈ 0.345 µM)
- MIC [8]: 0.5 µg/mL (≈ 0.345 µM)
- MIC [9]: 0.5 µg/mL (≈ 0.345 µM)
- MIC [10]: 0.5 to 1 µg/mL (≈ 0.345 to 0.69 µM)
- MIC ([11]; Citrobacter): > 128 µg/mL
- MIC [12]: > 128 µg/mL
- MIC [13]: > 128 µg/mL
- MIC [14]: > 128 µg/mL
- MIC [15]: 128 µg/mL (≈ 88.3 µM)
- MIC [16]: > 128 µg/mL
- MIC [17]: > 128 µg/mL
- MIC [18]: > 128 µg/mL
- MIC [19]: > 128 µg/mL
- MIC [20]: > 128 µg/mL
- MIC [21]: > 128 µg/mL
- MIC [22]: > 128 µg/mL
- MIC [23]: 32 to 128 µg/mL (≈ 22.1 to 88.3 µM)

Structure (SMILES): CC[C@H](C)[C@H](NC(=O)CN)C(=O)NCC(=O)N[C@@H](C)C(=O)N[C@H](C(=O)N[C@@H](CC(C)C)C(=O)N[C@@H](CCCCN)C(=O)N[C@H](C(=O)N[C@@H](CC(C)C)C(=O)N[C@H](C(=O)N[C@H](C(=O)NCC(=O)N[C@@H](CC(C)C)C(=O)N1CCC[C@H]1C(=O)N[C@@H](C)C(=O)N[C@@H](CC(C)C)C(=O)N[C@H](C(=O)N[C@@H](CO)C(=O)N[C@@H](Cc1c[nH]c2ccccc12)C(=O)N[C@H](C(=O)N[C@@H](CCCCN)C(=O)N[C@@H](CCCNC(=N)N)C(=O)N[C@@H](CCCCN)C(=O)N[C@@H](CCCNC(=N)N)C(=O)N[C@@H](CCC(N)=O)C(=O)N[C@@H](CCC(N)=O)C(N)=O)[C@@H](C)CC)[C@@H](C)CC)[C@@H](C)O)[C@@H](C)O)C(C)C)C(C)C [melittin, reference compound]
- MIC or MIC90* S. aureus [24]: 2 µg/mL (≈ 0.703 µM)

Structure (SMILES): CC(C)(O/N=C(\C(=O)N[C@@H]1C(=O)N2C(C(=O)[O-])=C(C[n+]3ccccc3)CS[C@H]12)c1csc(N)n1)C(=O)O [Ceftazidime]
- MIC ([1]; Entero. faecalis, 2-3 isolates/organism, read-out: MIC): > 64 µg/mL
- MIC ([2]; Entero. faecium (VRE), 2-3 isolates/organism, read-out: MIC): > 64 µg/mL
- MIC ([3]; Staph. aureus (MRSA), 2-3 isolates/organism, read-out: MIC): 32 µg/mL (≈ 58.5 µM)
- MIC [5, 29]: 16 to 32 µg/mL (≈ 29.3 to 58.5 µM)
- MIC ([6]; Staph. spp. (coagulase−), 2-3 isolates/organism, read-out: MIC): 16 to 32 µg/mL (≈ 29.3 to 58.5 µM)
- MIC ([7]; Strept. agalactiae, 2-3 isolates/organism, read-out: MIC): 0.5 µg/mL (≈ 0.915 µM)
- MIC ([8]; Strept. pneumoniae, 2-3 isolates/organism, read-out: MIC): 0.25 µg/mL (≈ 0.457 µM)
- MIC ([9]; Strept. pyogenes, 2-3 isolates/organism, read-out: MIC): 0.12 µg/mL (≈ 0.22 µM)
- MIC ([10]; Strept. viridians, 2-3 isolates/organism, read-out: MIC): 0.5 to 4 µg/mL (≈ 0.915 to 7.32 µM)
- MIC [25]: 2 to 64 µg/mL (≈ 3.66 to 117 µM)
- MIC ([11]; Citrobacter freundi, 2-3 isolates/organism, read-out: MIC): 0.25 to 2 µg/mL (≈ 0.457 to 3.66 µM)
- MIC [12, 30]: 0.12 to 0.25 µg/mL (≈ 0.22 to 0.457 µM)
- MIC [13, 30]: 0.25 µg/mL (≈ 0.457 µM)
- MIC [14, 30]: 0.06 µg/mL (≈ 0.11 µM)
- MIC [15, 30]: 0.06 to 0.12 µg/mL (≈ 0.11 to 0.22 µM)
- MIC [16, 30]: 0.06 to 0.12 µg/mL (≈ 0.11 to 0.22 µM)
- MIC [17, 30]: 0.06 to 0.12 µg/mL (≈ 0.11 to 0.22 µM)
- MIC [18, 30]: 2 to 16 µg/mL (≈ 3.66 to 29.3 µM)
- MIC [19, 30]: 0.03 to 0.06 µg/mL (≈ 0.0549 to 0.11 µM)
- MIC [20, 31]: 0.12 µg/mL (≈ 0.22 µM)
- MIC [21, 30]: 0.12 to 0.64 µg/mL (≈ 0.22 to 1.17 µM)
- MIC [26]: 1 to 8 µg/mL (≈ 1.83 to 14.6 µM)
- MIC [22, 30]: 0.12 to 0.25 µg/mL (≈ 0.22 to 0.457 µM)
- MIC [23, 30]: 4 to 8 µg/mL (≈ 7.32 to 14.6 µM)

Structure (SMILES): CCn1cc(C(=O)O)c(=O)c2cc(F)c(N3CCNCC3)cc21 [norfloxacin, reference compound]
- increase in MIC by passage 15 [27]: 128 fold
- rise in MIC values by passage 3 [27]: 4 doubling dilutions
- increase in MIC by passage 15 [28]: 64 fold
- rise in MIC values by passage 3 [28]: 4 doubling dilutions

Structure (SMILES): CC(=O)NC[C@H]1CN(c2ccc(N3CCOCC3)c(F)c2)C(=O)O1 [Linezolid]
- MIC [5, 29]: 0.5 to 1 µg/mL (≈ 1.48 to 2.96 µM)
- MIC [16, 30]: > 16 µg/mL
- MIC [20, 31]: > 16 µg/mL
